Entries after “also recorded” stand apart in the source; their conditions may differ.
Test system: Male Long-Evans rats
Test: Acquisition of oxycodone self-administration in rats
Assay type: in vivo, rat
Settings: 5-15 mg/kg i.p., 15 min before each of the initial 5 sessions; oxycodone 50 μg/kg/infusion, FR 1
Method: Animals: Male Long-Evans rats (275-325 g) (Charles-River Laboratories, Raleigh, N.C.) were used throughout this study. Upon arrival, they were housed in an animal facility under a reversed 12 h light-dark cycle (light on at 7:00 PM) with free access to food and water. They were allowed to acclimatize to the new environment at least for 7 days prior to study initiation. All procedures were approved by the Animal Care and Use Committee (IACUC) of the U.S. National Institute on Drug Abuse (NIDA) and were consistent with the Guide for the Care and Use of Laboratory Animals, 8th edition (National Research Council, 2011).
Surgery and self-administration procedures: The i.v. catheterization surgery and i.v. oxycodone self-administration procedures are the same as reported previously (You et al, 2017). […]
Oxycodone self-administration training was conducted in an operant conditioning chamber equipped with two response levers (Med Associates Inc., Georgia, Vt., USA). […] This time also served as a timeout period during which the cue light and tone were kept on and the animal's response on the active lever was recorded but had no scheduled consequence.
Three groups of rats (n=8/group) were used to test the effects of compound (±)-29 on acquisition of oxycodone self-administration. […] Animals' responses on the levers and oxycodone infusions were recorded. […]

Compound: CCc1cc(Cl)c(OC)c(N2CCN(CC(O)CCNC(=O)c3cc4ccccc4[nH]3)CC2)c1 (racemic) [Compound 29, N-(4-(4-(3-chloro-5-ethyl-2-methoxyphenyl)piperazin-1-yl)-3-hydroxybutyl)-1H-indole-2-carboxamide]
- oxycodone infusions and active lever presses during acquisition of oxycodone self-administration: dose-dependently decreased the number of oxycodone infusions and active lever presses; also recorded: dose-dependently inhibited the acquisition of oxycodone self-administration

From patent publication US11337971B2, “Dopamine D3 receptor selective antagonists/partial agonists and uses thereof” (THE UNITED STATES OF AMERICA, AS REPRESENTED BY THE …, priority 2018, dated 2022)
